The target of the assay is T1, M^pro expressed from mCherry-repM^pro-eGFP (total protease, all forms) (Severe acute respiratory syndrome coronavirus 2, UniProt P0DTD1).
T1 construct: gene rep
Nature of the assay: cell-based. The settings on record: read-out: HEK293T cells, reporter mCherry-repM^pro-eGFP / Total inhibition EC50.

Structures are written as SMILES.

Regarding `O=C(Oc1cncc(C(F)(F)F)c1)c1cccc2[nH]ccc12` [compound 1, Compound 1], the EC50 was determined as 12.1 ± 2.8 µM.

For the origin of these results see PMC11773056, “The zymogenic form of SARS-CoV-2 main protease: A discrete target for drug discovery” (The Journal of Biological Chemistry, 2024).
